PubChem BioAssay (NCI)
Values joined by “and” are separate entries in the source; they are usually repeats but may differ in a detail not shown here. Identical values can stand only once.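 Values below derive from 48-hour exposures of cells grown in 96-well plates, with endpoints linearly interpolated between the two concentrations bracketing the appropriate inhibition level. Abbreviation: GI50, concentration required for 50% inhibition of growth. TGI is the concentration that stops growth completely.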

What was measured:
Experiment in all cases: DTP human tumour cell line panel, 48 h
TK-10 renal = tested on: TK-10 renal
MOLT-4 leukemia = tested on: MOLT-4 leukemia
UACC-62 melanoma = tested on: UACC-62 melanoma
M14 melanoma = tested on: M14 melanoma
OVCAR-4 ovarian = tested on: OVCAR-4 ovarian
HCT-15 colon = tested on: HCT-15 colon
SN12C renal = tested on: SN12C renal
SK-OV-3 ovarian = tested on: SK-OV-3 ovarian
RPMI-8226 leukemia = tested on: RPMI-8226 leukemia
HOP-62 NSCLC = tested on: HOP-62 NSCLC

Compound	GI50 (TK-10 renal)	TGI (TK-10 renal)	GI50 (MOLT-4 leukemia)	TGI (MOLT-4 leukemia)	GI50 (UACC-62 melanoma)	TGI (UACC-62 melanoma)	GI50 (M14 melanoma)	TGI (M14 melanoma)	GI50 (OVCAR-4 ovarian)	TGI (OVCAR-4 ovarian)	GI50 (HCT-15 colon)	TGI (HCT-15 colon)	GI50 (SN12C renal)	TGI (SN12C renal)	GI50 (SK-OV-3 ovarian)	TGI (SK-OV-3 ovarian)	GI50 (RPMI-8226 leukemia)	TGI (RPMI-8226 leukemia)	GI50 (HOP-62 NSCLC)	TGI (HOP-62 NSCLC)
N#Cc1cccc(C(=O)Nc2cccc(NC(=O)c3cccc(C#N)c3)c2)c1	52.5 µM	> 100 µM	86.5 µM	> 100 µM	34.1 µM	> 100 µM	> 100 µM	> 100 µM	> 100 µM	> 100 µM	73.9 µM	> 100 µM	34.1 µM	> 100 µM	> 100 µM	> 100 µM	52 µM	> 100 µM	33.5 µM	74 µM
COc1cc(Cn2c(=S)ss/c2=N\C(=S)N(C)C)cc(OC)c1OC	–	> 100 µM	–	> 100 µM	–	58.6 µM	–	> 70.7 µM	–	> 95.6 µM	–	> 70.5 µM	–	> 100 µM	–	> 63.1 µM	–	> 85.8 µM	–	> 84.1 µM
O/N=C/c1cc2c(cc1Br)OCO2	–	> 100 µM	–	> 100 µM	–	> 100 µM	–	> 100 µM	–	> 100 µM	–	> 100 µM	–	> 100 µM	–	> 100 µM	–	> 100 µM	–	> 100 µM
COc1ccc(-c2cnnn2-c2cc(OC)c3c(c2)OCO3)cc1	25 µM	> 100 µM	0.266 µM	> 27.2 µM	0.235 µM	> 100 µM	0.0537 µM	> 100 µM	5.9 µM	> 100 µM	0.0481 µM	> 100 µM	0.658 µM	> 100 µM	0.348 µM	> 100 µM	0.256 µM	> 100 µM	0.113 µM	> 100 µM
COc1ccc(C/C(C)=C(\c2ccc(OCCN3CCOCC3)cc2)c2ccc(OC(=O)Cc3ccccc3)cc2)cc1	0.778 µM	2.03 µM	0.593 µM	1.91 µM	0.527 µM	1.06 µM	0.59 µM	1.19 µM	1.03 µM	10.2 µM	0.566 µM	1.5 µM	0.612 µM	1.44 µM	0.978 µM	4.45 µM	0.531 µM	1.31 µM	0.621 µM	1.17 µM
COc1cc(C(O)c2nc3ccccc3s2)cc(OC)c1OC (stereo not drawn)	47.3 µM	> 100 µM	18.1 µM	> 100 µM	37.8 µM	> 100 µM	85.3 µM	> 100 µM	30.9 µM	> 100 µM	> 100 µM	> 100 µM	> 100 µM	> 100 µM	> 100 µM	> 100 µM	7.9 µM	> 100 µM	43.8 µM	> 100 µM
COc1ccc(-c2nnc(SCC(=O)Nc3ccc(/C(C)=N\O)cc3)n2-c2ccccc2)cc1OC	11.3 µM	52.7 µM	> 100 µM	> 100 µM	> 100 µM	> 100 µM	97.4 µM	> 100 µM	> 100 µM	> 100 µM	> 100 µM	> 100 µM	26.2 µM	> 100 µM	2.73 µM	13.7 µM	> 100 µM	> 100 µM	2.06 µM	6.8 µM
Nc1ncnc2c1ncn2CC(O)C(=O)O (stereo not drawn)	–	> 100 µM	–	> 100 µM	–	> 100 µM	–	> 100 µM	–	> 100 µM	–	> 100 µM	–	> 100 µM	–	> 100 µM	–	> 100 µM	–	> 100 µM
Cc1cccc(NC(=O)c2cc3cc(N=Nc4ccccc4Cl)ccc3oc2=O)c1	–	86.2 µM	–	> 100 µM	–	42.5 µM	–	85.9 µM	–	> 100 µM	–	> 100 µM	–	> 100 µM	–	> 100 µM	–	> 100 µM	–	> 100 µM
CCCCCCCCCCC(O)[C@H]1CCC(C2CC[C@H]([C@H](O)CCCCCCCCCCC(O)CC3=CC(C)OC3=O)O2)O1 (stereo partly drawn)	4.05 µM	–	–	3.69 µM	1.97 µM	4.03 µM and 14.2 µM	7 µM	–	–	11.7 µM	1.23 µM	3.7 µM and 5.88 µM	1.76 µM	–	–	15.7 µM	0.615 µM	3.2 µM	–	4.89 µM and 5.88 µM
CCCCCCCCC(=O)N(C)C1C2CN3CCC(O2)C13 (stereo not drawn)	–	> 100 µM	–	> 100 µM	–	> 100 µM	–	> 100 µM	–	> 100 µM	–	> 100 µM	–	> 100 µM	–	> 100 µM	–	> 100 µM	–	> 100 µM
O=C1Nc2ccccc2C1Cc1ccc([N+](=O)[O-])cc1 (stereo not drawn)	–	> 100 µM	–	> 100 µM	–	> 100 µM	–	> 100 µM	–	> 100 µM	–	> 100 µM	–	> 100 µM	–	> 100 µM	–	> 100 µM	–	> 100 µM
Cc1nc2cnc3cc(F)c(-c4ccc(Oc5ncccn5)cc4Cl)cc3c2n1[C@H]1CCN(C(=O)CO)C[C@@H]1F	1.76 µM	36 µM	0.792 µM	30 µM	0.0134 µM	0.0875 µM	0.0155 µM	0.882 µM	20.8 µM	> 83.9 µM	3.6 µM	> 100 µM	1.2 µM	36.8 µM	3.93 µM	> 100 µM	1.35 µM	13.9 µM	0.642 µM	49.3 µM
NC(=NC1CCCCCCC1)c1ccc(N2CCN(c3ccc(C(N)=NC4CCCCCCC4)cc3)CC2)cc1	10.9 µM	34.2 µM	47.8 µM	> 100 µM	12.6 µM	28.3 µM	30.8 µM	> 100 µM	24.6 µM	> 100 µM	31.8 µM	> 100 µM	7.62 µM	69.3 µM	15.2 µM	34.9 µM	25.8 µM	> 100 µM	14.4 µM	62.8 µM
C/C([O-])=C1\Cc2ccccc2C1=O.C/C([O-])=C1\Cc2ccccc2C1=O.CC[O-].CC[O-].[Ti+4]	32.2 µM	> 100 µM	16.5 µM	> 46.4 µM	12.4 µM	31.6 µM	16.8 µM	42.3 µM	27.2 µM	> 84.5 µM	11.8 µM	79.4 µM	21.5 µM	> 81.6 µM	20.3 µM	81.7 µM	14.8 µM	68.8 µM	13 µM	50.3 µM
